Biological target: T1, CRTh2 (Homo sapiens, UniProt Q9Y5Y4)
T1 construct: expressed in transfected cells; host or cells: HEK cells (membrane preparation)
T1 sequence (Q9Y5Y4 1-395): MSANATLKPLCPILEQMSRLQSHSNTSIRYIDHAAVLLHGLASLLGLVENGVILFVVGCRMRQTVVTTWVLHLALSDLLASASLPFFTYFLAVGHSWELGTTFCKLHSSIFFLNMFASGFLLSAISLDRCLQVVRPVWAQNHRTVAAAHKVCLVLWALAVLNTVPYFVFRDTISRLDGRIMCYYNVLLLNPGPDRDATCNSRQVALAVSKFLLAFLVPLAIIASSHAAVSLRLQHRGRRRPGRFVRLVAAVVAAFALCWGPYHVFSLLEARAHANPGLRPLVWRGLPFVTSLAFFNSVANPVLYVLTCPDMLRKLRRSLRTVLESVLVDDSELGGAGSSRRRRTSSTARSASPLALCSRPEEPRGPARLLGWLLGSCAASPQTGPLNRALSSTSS
Assay: Ligand binding assay: [3H]PGD2 binding to membranes of HEK cells expressing rhCRTh2/Gα16 (SPA beads)
Conditions: [3H]PGD2 displacement, HEK cell membranes containing CRTh2, SPA, 2 hours at room temperature
Protocol: [hu 3H]PGD2 was purchased from Perkin Elmer Life Sciences with a specific activity of 100-210 Ci/mmol. All other chemicals were of analytical grade.
HEK cells expressing rhCRTh2/Gα16 were routinely maintained in DMEM containing 10% Foetal Bovine Serum (HyClone), 1 mg/ml geneticin, 2 mM L-glutamine and 1% non-essential amino acids. For the preparation of membranes, the adherent transfected HEKcells were grown to confluence in two layer tissue culture factories (Fisher, catalogue number TKT-170-070E). Maximal levels of receptor expression were induced by addition of […] sodium butyrate for the last 18 hours of culture. The adherent cells were washed once with phosphate buffered saline (PBS, 50 ml per cell factory) and detached by the addition of 50 ml per cell factory of ice-cold membrane homogenisation buffer [20 mM HEPES (pH 7.4), 0.1 mM dithiothreitol, 1 mM EDTA, 0.1 mM phenyl methyl sulphonyl fluoride and 100 μg/ml bacitracin]. […] The final pellet was re-suspended in 4 ml of membrane homogenisation buffer per cell factory used and the protein content determined. […]
All assays were performed in Corning clear bottomed, white 96-well NBS plates (Fisher). […] (The optimum coating concentrations were determined for each batch of membranes) The beads were pelleted by centrifugation (800×g for 7minutes at 4° C.), washed once with assay buffer (50 mM HEPES pH 7.4 containing 5 mM magnesium chloride) and finally re-suspended in assay buffer at a bead concentration of 10 mg/ml.
Each assay contained 20 μl of 6.25 nM [^3H]PGD2, 20 μl membrane saturated SPA beads both in assay buffer and 10 μl of compound solution or 13,14-dihydro-15-keto prostaglandin D2 (DK-PGD2, for determination of non-specific binding, Cayman chemical company). […] The assay plate was incubated at room temperature for 2 hours and counted on a Wallac Microbeta liquid scintillation counter (1 minute per well).

| Compound | IC50 [nM] |
| --- | --- |
| CCS(=O)(=O)c1ccc(-c2nc(C)ccc2OCC(=O)O)c(C)c1 [Example 11, ({2-[4-(Ethylsulfonyl)-2-methylphenyl]-6-methylpyridin-3-yl}oxy)acetic acid] | 63.1 |
| Cc1nn(S(=O)(=O)N(C)C)cc1-c1cc(C(F)(F)F)ccc1O[C@@H](C)C(=O)O [Example 22, (2S)-2-[2-{1-[(Dimethylamino)sulfonyl]-3-methyl-1H-pyrazol-4-yl}-4-(trifluoromethyl)phenoxy]propanoic acid] | 10 |
| CS(=O)(=O)c1ccc(-c2cc(C(F)(F)F)ccc2CCC(=O)O)cc1C(F)(F)F [Example 31, 3-[4′-(Methylsulfonyl)-3′,5-bis(trifluoromethyl)biphenyl-2-yl]propanoic acid] | 39.8 |

— patent US20070249686A1, “Modulators of Crth-2 Receptor Activity for the Treatment of Prostaglandin D2 Mediated Diseases” (ASTRAZENECA AB, priority 2004, published 2007)
